{
  "source": "patent US4847271A",
  "about": "“Antihypercholesterolemic β-lactones” (Merck & Co., Inc., priority 1987, dated 1989)",
  "molecular_target": "T1, HMG-CoA synthase (Rattus norvegicus, UniProt P17425)",
  "T1 construct": "The livers from male Charles River CD rats (225-350 g) were homogenized in 0.25 M sucrose; from tissue; host or cells: rat liver (male Charles River CD rats), 100,000×g supernatant, ammonium sulfate precipitate, DEAE-52 fraction",
  "T1 sequence (P17425 1-520)": "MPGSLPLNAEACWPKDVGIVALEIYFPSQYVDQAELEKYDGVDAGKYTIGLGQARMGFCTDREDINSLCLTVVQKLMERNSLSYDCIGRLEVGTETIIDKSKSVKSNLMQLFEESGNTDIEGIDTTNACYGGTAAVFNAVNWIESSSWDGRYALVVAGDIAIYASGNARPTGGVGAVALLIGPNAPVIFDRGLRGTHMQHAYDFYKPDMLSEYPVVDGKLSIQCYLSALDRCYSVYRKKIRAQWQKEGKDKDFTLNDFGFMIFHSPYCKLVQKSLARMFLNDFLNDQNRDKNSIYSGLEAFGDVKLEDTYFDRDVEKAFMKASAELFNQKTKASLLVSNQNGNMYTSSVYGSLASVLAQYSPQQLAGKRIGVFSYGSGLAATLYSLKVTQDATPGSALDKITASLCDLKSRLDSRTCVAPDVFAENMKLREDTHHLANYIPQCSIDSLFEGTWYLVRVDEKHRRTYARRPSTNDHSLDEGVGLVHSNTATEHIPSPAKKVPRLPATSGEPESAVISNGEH",
  "test": "HMG-CoA synthase inhibition assay (in vitro, enzyme partially purified from rat liver)",
  "type": "biochemical",
  "procedure": "The intrinsic HMG-CoA synthase inhibition activity of the compounds of this invention is measured by the standard in vitro protocol described below:\nThe livers from male Charles River CD rats (225-350 g) were homogenized in 0.25 M sucrose which was adjusted with phenylmethylsulfonylfluoride (PMSF) and N-p-tosyl-1-lysine chloromethyl ketone (TLCK) so that the final concentration of each was 50 and 25 μg/ml, respectively. The homogenate was centrifuged at 15,000×g for 20 minutes, the supernatant filtered through a fine nylon screen to remove most of the fat layer and recentrifuged at 100,000×g for 1 hour. This supernatant was removed and 1 M potassium phosphate, dithiothreitol (DTT) and ethylene glycolbis(β-aminoethyl ether)-N,N,N',N'-tetraacetic acid (EGTA) added to give a final concentration of 0.1 M (pH 7.2), 0.5 mM and 0.1 mM, respectively. Solid ammonium sulfate was added to 50% saturation to the protein solution, it was centrifuged at 15,000×g and the […]. This precipitated protein could be stored at -70° for at least one month with very little loss of activity. The ammonium sulfate rrecipitate was dissolved in an minimal amount of 0.06 M potassium phosphate buffer (pH 7.2) containing 0.5 mM dithiothreitol and 0.1 mM EGTA (referred to as 0.06 M phosphate buffer) and dialyzed overnight against 2 liters of the same buffer to remove the ammonium sulfate and to inactivate HMG-CoA lyase [Clinkenbeard, et al., J. Biol. Chem 250, 3108-3116(1975)].\nThe dialyzed extract was added to a column of DEAE-52 (Whatman) which had been equilibrated with 0.06 M phosphate buffer (10 mg of protein to 1 ml bed volume of the resin). The DEAE-cellulose was eluted with 0.06 M Phosphate buffer until the optical density at 280 nm was essentially zero. This fraction contained the β-ketoacetyl-CoA thiolase activity. The HMG-CoA synthase was eluted from the column with 0.1 M phosphate buffer (pH 7.2) containing 0.5 mM DTT and 0.1 mM EGTA, and was virtually free of all thiolase activity. The protein was precipitated by the addition of ammonium sulfate to give 50% saturation. This solution was stirred for 10 minutes at 4° C. and the precipitate collected by centrifugation at 15,000 rpm for 10 minutes. The supernatant was discarded and the precipitate dissolved in a minimum of 0.06 M phosphate buffer, pH 7.2 (about 10 ml) and the enzyme stored at -80° C.\nHMG-CoA Synthase Inhibition Assay\nEnzyme protein (ca. 24 μg) was added to a solution containing 117 mM Tris-HCl (pH 8.0), 11.7 mM MgCl2, 1.17 mM Ethylenediaminetetraacetic acid (EDTA), 0.58 mM dithiothreitol, and the indicated concentrations of the test compound (added as a 2 μg/ml solution in dimethylsulfoxide). The incubation took place in a volume of 0.085 ml at 30° in a shaking water bath. After 5 minutes, 15 μl of a solution containing acetoacetyl-CoA and 0.1 μCi of 1-[^14 C]-acetyl-CoA was added to give a final concentrations of 0.1 and 0.4 mM, respectively. The incubation was continued for 10 more minutes and the reaction stopped by the addition of 50 μl of the assay mixture to 0.2 ml of 6N HCl in a glass scintillation vial. The vial was heated for 1 hour at 120° after which time 0.2 ml more of 6N HCl was again added to each vial and the heating continued for another hour. Following this, 1.0 ml of 0.9% saline was added to each vial and finally 10 ml of scintillation liquid. Radioactivity was determined in a Packard Tri-Carb liquid scintillation counter. Percent inhibition is calculated by the formula: [formula] IC50 values were determined by plotting the log of the concentration of the test compound verses the percentage inhibition and fitting a straight line to the resulting data by using the least squares method.",
  "key": {"[1]": {"settings": "HMG-CoA synthase activity, 5 min preincubation, 30°, read-out: IC50"}},
  "note": "Read-outs that look alike come from different tables or passages of the source.",
  "data": [
    {"molecule": "CC(=CC(=O)Sc1ccccn1)C=C(C)CC(C)CCCCC1OC(=O)C1CO", "note": "(stereo not drawn) [2-pyridyl 11-(3-hydroxymethyl-4-oxo-2-oxetano)-3,5,7-trimethyl-2,4-undecadienthioate]", "values": [
      {"measurement": "IC50", "setting": "[1]", "result": 120, "unit": "nM"}
    ]},
    {"molecule": "CCCCCCNC(=O)C=C(C)C=C(C)CC(C)CCCCC1OC(=O)C1CO", "note": "(stereo not drawn) [Example 7, N-n-hexyl 11-(3-hydroxymethyl-4-oxo-2-oxetano)-3,5,7-trimethyl-2,4-undecadienamide]", "values": [
      {"measurement": "IC50", "setting": "[1]", "result": 200, "unit": "nM"}
    ]},
    {"molecule": "CC(=CC(N)=O)C=C(C)CC(C)CCCCC1OC(=O)C1CO", "note": "(stereo not drawn) [Example 8, 11-(3-hydroxymethyl-4-oxo-2-oxetano)-3,5,7-trimethyl-2,4-undecadienamide]", "values": [
      {"measurement": "IC50", "setting": "[1]", "result": "< 100", "unit": "nM"}
    ]},
    {"molecule": "CC(=CC(=O)Nc1ccc(Br)cc1)C=C(C)CC(C)CCCCC1OC(=O)C1CO", "note": "(stereo not drawn) [Example 9, N--(4-bromophenyl)-11-(3-hydroxymethyl-4-oxo-2-oxetano)-3,5,7-trimethyl-2,4-undecadienamide]", "values": [
      {"measurement": "IC50", "setting": "[1]", "result": 100, "unit": "nM"}
    ]},
    {"molecule": "CC(=CC(=O)NCCO)C=C(C)CC(C)CCCCC1OC(=O)C1CO", "note": "(stereo not drawn) [Example 10, N--(2-hydroxyethyl)-11-(3-hydroxymethyl-4-oxo-2-oxetano)-3,5,7-trimethyl-2,4-undecadienamide]", "values": [
      {"measurement": "IC50", "setting": "[1]", "result": "< 100", "unit": "nM"}
    ]},
    {"molecule": "COCC1C(=O)OC1CCCCC(C)CC(C)=CC(C)=CC(=O)OC", "note": "(stereo not drawn) [Example 11, methyl 11-(3-methoxymethyl-4-oxo-2-oxetano)-3,5,7-trimethyl-2,4-undecadienoate]", "values": [
      {"measurement": "IC50", "setting": "[1]", "result": 270, "unit": "nM"}
    ]},
    {"molecule": "CCOCC1C(=O)OC1CCCCC(C)CC(C)=CC(C)=CC(=O)OC", "note": "(stereo not drawn) [Example 12, methyl 11-(3-ethoxymethyl-4-oxo-2-oxetano)-3,5,7-trimethvl-2.4-undecadienoate]", "values": [
      {"measurement": "IC50", "setting": "[1]", "result": 700, "unit": "nM"}
    ]},
    {"molecule": "C=CCOCC1C(=O)OC1CCCCC(C)CC(C)=CC(C)=CC(=O)OC", "note": "(stereo not drawn) [Example 13, methyl 11-[3-(2-propenyloxymethyl)-4-oxo-2-oxetano]-3,5,7-trimethyl-2,4-undecadienoate]", "values": [
      {"measurement": "IC50", "setting": "[1]", "result": 1000, "unit": "nM"}
    ]},
    {"molecule": "COCC1C(=O)OC1CCCCC(C)CC(C)=CC(C)=CC(=O)OC(c1ccccc1)c1ccccc1", "note": "(stereo not drawn) [Example 14 Step B, Diphenylmethyl 11-(3-methoxymethyl-4-oxo-2-oxetano)-3,5,7-trimethyl-2,4-undecadienoate]", "values": [
      {"measurement": "IC50", "setting": "printed as (40 μg/ml) without footnote, read-out: IC50 (value printed in brackets as a concentration) (converted)", "result": 79300, "unit": "nM"}
    ]},
    {"molecule": "COCC1C(=O)OC1CCCCC(C)CC(C)=CC(C)=CC(=O)O", "note": "(stereo not drawn) [Example 14, 11-(3-methoxymethyl-4-oxo-2-oxetano)-3,5,7-trimethyl-2,4-undecadienoic acid]", "values": [
      {"measurement": "IC50", "setting": "[1]", "result": 110, "unit": "nM"}
    ]},
    {"molecule": "COc1ccc(C(OCC2C(=O)OC2CCCCC(C)CC(C)=CC(C)=CC(=O)O)(c2ccccc2)c2ccccc2)cc1", "note": "(stereo not drawn) [Example 15, 11-(3-anisyldiphenylmethyloxymethyl-4-oxo-2-oxetano)-3,5,7-trimethyl-2,4-undecadienoic acid]", "values": [
      {"measurement": "IC50", "setting": "[1]", "result": 10000, "unit": "nM"}
    ]},
    {"molecule": "COC(=O)C=C(C)C=C(C)CC(C)CCCCC1OC(=O)C1COS(C)(=O)=O", "note": "(stereo not drawn) [Example 16, methyl 11-(3-methanesulfonyloxymethyl-4-oxo-2-oxetano)-3,5,7-trimethyl-2,4-undecadienoate]", "values": [
      {"measurement": "IC50", "setting": "[1]", "result": 240, "unit": "nM"}
    ]},
    {"molecule": "COC(=O)C=C(C)C=C(C)CC(C)CCCCC1OC(=O)C1COC=O", "note": "(stereo not drawn) [Example 17, methyl 11-(3-formyloxymethyl-4-oxo-2-oxetano)-3,5,7-trimethyl-2,4-undecadienoate]", "values": [
      {"measurement": "IC50", "setting": "[1]", "result": 140, "unit": "nM"}
    ]},
    {"molecule": "CCC(C)C(=O)OCC1C(=O)OC1CCCCC(C)CC(C)=CC(C)=CC(=O)OC", "note": "(stereo not drawn) [Example 18, methyl 11-[3-(2-methylbutyryloxymethyl)-4-oxo-2-oxetano]-3,5,7-trimethyl-2,4-undecadienoate]", "values": [
      {"measurement": "inhibition at 10 µM", "setting": "at 10^-5 M (IC25), read-out: percent inhibition", "result": 25.4, "unit": "%"}
    ]},
    {"molecule": "CC(=CC(=O)OC(C)(C)C)C=C(C)CC(C)CCCCC1OC(=O)C1CO", "note": "(stereo not drawn) [Example 20, tert-butyl 11-(3-hydroxymethyl-4-oxo-2-oxetano)-3,5,7-trimethyl-2,4-undecadienoate]", "values": [
      {"measurement": "IC50", "setting": "[1]", "result": 500, "unit": "nM"}
    ]},
    {"molecule": "COC(=O)C=C(C)C=C(C)CC(C)CCCCC1OC(=O)C1COC(=O)CCC(=O)O", "note": "(stereo not drawn) [methyl 11-[3-(3-carboxypropionyloxymethyl)-4-oxo-2-oxetano]-3,5,7-trimethyl-2,4-undecadienoate]", "values": [
      {"measurement": "IC50", "setting": "[1]", "result": 2400, "unit": "nM"}
    ]},
    {"molecule": "methyl 11-(3-urethanylmethyl)-4-oxo-2-oxetano)-3,5,7-trimethyl-2,4-undecadienoate", "values": [
      {"measurement": "percent inhibition", "setting": "at 40 μg/ml", "result": 80.6, "unit": "%"}
    ]},
    {"molecule": "methyl 11-[3-(N-methylurethanylmethyl)-4-oxo-2-oxetano]-3,5,7-trimethyl-2,4-undecadienoate [Example 19]", "values": [
      {"measurement": "percent inhibition", "setting": "at 4.0 μg/ml", "result": 86.2, "unit": "%"}
    ]}
  ]
}
